Measurements: patent US20130156755A1, “CANCER THERAPY USING A COMBINATION OF A HSP90 INHIBITORY COMPOUNDS AND A VEGF INHIBITOR” (Synta Pharmaceuticals Corp., priority 2010, published 2013)
Entries after “also recorded” stand apart in the source; their conditions may differ.

Legend:
[1] = test system: human NSCLC cell line NCI-H1975; assay: SCID mouse xenograft model, in vivo growth of NCI-H1975 tumors
Protocol: (§1) The human non-small cell lung cancer (NSCLC) cell line, NCI-H1975 (ATCC #CRL-5908) was obtained from the American Type Culture Collection (ATCC; Manassas, Va., USA). The human multiple myeloma cell line, RPMI 8226 (ATCC #CCL-155) was also obtained from the ATCC.
(§2) NCI-H1975 cells were cultured in growth media prepared from 50% Dulbecco's Modified Eagle Medium (high glucose), 50% RPMI Media 1640 (4.5 g/L glucose), 10% fetal bovine serum (FBS), 10 mM HEPES, 1% 100× Penicillin-Streptomycin, 1% 100× sodium pyruvate and 1% 100× MEM non-essential amino acids. RPMI 8226 cells were cultured in growth media prepared with RPMI Media 1640 (4.5 g/L glucose), 10% FBS, 10 mM HEPES, 1% 100× Penicillin-Streptomycin, 1% 100× sodium pyruvate and 1% 100× MEM non-essential amino acids. FBS was obtained from ATCC and all other reagents were obtained from Invitrogen Corp. (Carlsbad, Calif., USA). Cells that had been cryopreserved in liquid nitrogen were rapidly thawed at 37° C. and transferred to a tissue culture flask containing growth media and then incubated at 37° C. in a 5% CO2 incubator. To expand the RPMI 8226 cell line, growth media was changed every 2-3 days and cultures were passaged 1:3 to 1:5 every 3-5 days. When the a 175 cm^2 flask reached approximately 20-40×10(6) total cells, the above passaging process was repeated until sufficient cells had been obtained for implantation into mice. To expand the NCI-H1975 cell line, cultures were split 1:5 every 3 days when 175 cm^2 flasks became 85% confluent. Cultures were passaged by washing with 10 mL of room temperature phosphate buffered saline (PBS) and then disassociating cells by adding 5 mL 1× trypsin-EDTA and incubating at 37° C. until the cells detached from the surface of the flask. To inactivate the trypsin, 5 mL of growth media was added and then the contents of the flask were centrifuged to pellet the cells. The supernatant was aspirated and the cell pellet was resuspended in 10 mL of growth media and the cell number determined using a hemocytometer. Cells were seeded into 175 cm^2 flasks containing 50 mL of growth media and incubated at 37° C. in a 5% CO2 incubator. When the flasks reached 85% confluence, the above passaging process was repeated until sufficient cells had been obtained for implantation into mice.
(§3) Six to eight week old, female CB17/Icr-Prkdc^scid/Crl (SCID) mice were obtained from Charles River Laboratories (Wilmington, Mass., USA) Animals were housed 4-5/cage in micro-isolators, with a 12 hr/12 hr light/dark cycle, acclimated for at least 1 week prior to use and fed normal laboratory chow ad libitum. Animals were between seven to thirteen weeks of age at implantation. To implant NCI-H1975 or RPMI 8226 tumor cells into SCID mice, cells were collected as described above, washed in PBS and resusupended at a concentration of 5×10(7) cells/mL in 50% non-supplemented medium and 50% Matrigel Basement Membrane Matrix (#354234; BD Biosciences; Bedford, Mass., USA). Using a 27 gauge needle and 1 cc syringe, 5×10(6) […] or RPMI 8226 cells in 0.1 mL of a cell suspension were injected subcutaneously into the flanks of SCID mice.
(§4) For the NCI-H1975 model, tumors were then permitted to develop in vivo until the majority reached approximately 100-225 mm^3 in tumor volume, which required ˜1½ weeks. For the RPMI 8226 model, tumors were permitted to develop in vivo until the majority reached approximately 80-200 mm^3 in tumor volume, which required ˜3½ weeks. […] Tumor volumes (V) were calculated by caliper measurement of the width (W), length (L) and thickness (T) of tumors using the following formula: V=0.5236×(L×W×T). […]

[2] = highest non-severely toxic dose (HNSTD) in tumor-bearing SCID mice; assay type: in vivo, mouse; conditions: i.v. dosed once per week, tumor-bearing SCID mice (data not shown)
Protocol: The combination of Compound 1 and bevacizumab was also examined in the NCI-H1975 model using higher doses of each test article. […] The HNSTD was determined based on prior studies and was defined as the dose and dosing schedule at which no morbidity was observed, and at which no individual animal lost ≧20% of its body weight and no treatment group lost ≧10% average body weight over the course of the study.

[3] = test system: human multiple myeloma cell line RPMI 8226; assay: SCID mouse xenograft model, in vivo growth of RPMI 8226 tumors
Protocol: as §1, §2, §3, §4

[4] = test system: human NSCLC cell line HCC827; assay: SCID mouse xenograft study, in vivo growth of HCC827 tumors; conditions: 4 doses (FIG. 8)
Protocol: Tumor-bearing animals (8 mice/group) were injected 1 time per week for a total of 4 doses (arrowheads) with vehicle alone, Compound 1 alone, bevacizumab alone or a combination of Compound 1 and bevacizumab dosed concurrently. Compound 1 was i.v. injected and bevacizumab was i.p. injected. The average tumor volumes for each group (error bars represent SEM) were determined every 2-4 days.

[5] = test system: RERF-LC-AI^IVP human lung tumor cells; assay: nude mouse xenograft model, in vivo growth rate of RERF-LC-AI^IVP tumors; conditions: 5 times per week, 15 doses, nude mice
Protocol: The human squamous non-small cell lung cancer cell line, RERF-LC-AI (RCB0444; S. Kyoizumi, et al., Cancer. Res. 45:3274-3281, 1985), was obtained from the Riken Cell Bank (Tsukuba, Ibaraki, Japan). The cell line was cultured in growth media prepared from 50% Dulbecco's Modified Eagle Medium (high glucose), 50% RPMI Media 1640, 10% fetal bovine serum (FBS), 1% 100× L-glutamine, 1% 100× penicillin-streptomycin, 1% 100× sodium pyruvate and 1% 100× MEM non-essential amino acids. FBS was obtained from American Type Culture Collection (Manassas, Va., USA) and all other reagents were obtained from Invitrogen Corp. (Carlsbad, Calif., USA). […]
The growth media was replaced every 2-3 days until the flask became 90% confluent, typically in 5-7 days. […] The supernatant was aspirated and the cell pellet was resuspended in 10 ml of growth media and the cell number determined using a hemocytometer. […]
Seven to eight week old, female Crl:CD-1-nuBR (nude) mice were obtained from Charles River Laboratories (Wilmington, Mass., USA) Animals were housed 4-5/cage in micro-isolators, with a 12 hr/12 hr light/dark cycle, acclimated for at least 1 week prior to use and fed normal laboratory chow ad libitum. […] Tumor volumes (V) were calculated by caliper measurement of the width (W), length (L) and thickness (T) of tumors using the following formula: V=0.5236×(L×W×T). […]

[6] = body weight changes in nude mouse RERF-LC-AI^IVP xenograft study; assay type: in vivo; conditions: 200 mg/kg body weight i.p., 5 times per week, 15 doses, nude mice
Protocol: Seven to eight week old, female Crl:CD-1-nuBR (nude) mice were obtained from Charles River Laboratories (Wilmington, Mass., USA) Animals were housed 4-5/cage in micro-isolators, with a 12 hr/12 hr light/dark cycle, acclimated for at least 1 week prior to use and fed normal laboratory chow ad libitum. Studies were conducted on animals between 8 and 12 weeks of age at implantation. To implant RERF-LC-AI tumor cells into nude mice, the cells were trypsinized as above, washed in PBS and resuspended at a concentration of 50×10(6) cells/ml in 50% non-supplemented RPMI Media 1640 and 50% Matrigel Basement Membrane Matrix (#354234; BD Biosciences; Bedford, Mass., USA). Using a 27 gauge needle and 1 cc syringe, 0.1 ml of the cell suspension was injected subcutaneously into the flank of each nude mouse. Tumor volumes (V) were calculated by caliper measurement of the width (W), length (L) and thickness (T) of tumors using the following formula: V=0.5236×(L×W×T).
The Hsp90 inhibitor, 17-allylamino-17-demethoxygeldanamycin (17-AAG), was employed as a positive control (Albany Molecular Research, Albany, N.Y., USA). Stock solutions of test articles were prepared by dissolving the appropriate amounts of each compound in dimethyl sulfoxide (DMSO) by sonication in an ultrasonic water bath. Stock solutions were prepared weekly, stored at −20° C. and diluted fresh each day for dosing. […]

In the case of `CC(C)c1cc(-c2nnc(O)n2-c2ccc3c(ccn3C)c2)c(O)cc1O` [Compound 1, 3-(2,4-DIHYDROXY-5- ISOPROPYL-PHENYL)-4-(1- METHYL-INDOL-5-YL)-5- HYDROXY-[1,2,4] TRIAZOLE], the “% T/C value” ([1]; 50 mg/kg i.v. once per week (3 doses), day 29, SCID mice) is reported as 39%, the tumor growth ([1]; 50 mg/kg i.v. once per week, 3 doses (FIG. 3)) is reported as “moderately inhibited tumor growth” and the “% T/C value” ([1]; 150 mg/kg i.v. once per week (4 doses), day 38, SCID mice) is reported as 3%. The tumor growth ([1]; 150 mg/kg i.v. once per week, 4 doses (FIG. 4)) was “substantially inhibited tumor growth”, the “highest non-severely toxic dose (HNSTD)” value [2] was 150 mg/kg and the tumor growth ([3]; 12.5 mg/kg i.v. 5 times per week, 15 doses (FIG. 5)) was “moderately inhibited tumor growth”. The “% T/C value” ([3]; 12.5 mg/kg i.v. five times per week (15 doses), day 49, SCID mice) was 63%, the “% T/C value” ([3]; second study, single dose 12.5 mg/kg, over three days (data not shown)) was 83% and the tumor growth ([4]; 150 mg/kg i.v. once per week) was “moderately inhibited tumor growth”.

In the case of `C=CCNC1=C2C[C@@H](C)C[C@H](OC)[C@H](O)[C@@H](C)/C=C(\C)[C@H](OC(N)=O)[C@@H](OC)/C=C\C=C(/C)C(=O)NC(=CC1=O)C2=O` [Compound 17-AAG, 17-allylamino-17-demethoxygeldanamycin, reference compound], the “tumor growth (growth rate of tumor cells)” value ([5]; 75 mg/kg body weight i.p.) is reported as “inhibited tumor growth; also recorded: decreased the growth rate”.

In the case of `CCc1cc(-c2nnc(S)n2-c2ccc(OC)c3c2ccn3C(C)C)c(O)cc1O` [Compound 26, 3-(2,4-DIHYDROXY-5-ETHYL- PHENYL)-4-(1-ISOPROPYL-7- METHOXY-INDOL-4-YL)-5- MERCAPTO-[1,2,4] TRIAZOLE], the “tumor growth (growth rate of tumor cells)” value ([5]; 200 mg/kg body weight i.p.) is reported as “inhibited tumor growth; also recorded: decreased the growth rate” and the “overt toxicity (effect on body weights)” value [6] is reported as “not overtly toxic; also recorded: not associated with overt toxicity”.

For “bevacizumab: Humanized monoclonal antibody that blocks VEGF; VEGF inhibitor purchased from Genentech [reference compound]”, the “% T/C value” ([1]; 2 mg/kg i.p. once per week (3 doses), day 29, SCID mice) was 18%, the tumor growth ([1]; 2 mg/kg i.p. once per week, 3 doses (FIG. 3)) was “moderately inhibited tumor growth” and the “% T/C value” ([1]; 10 mg/kg i.p. once per week (4 doses), day 38, SCID mice) was 17%. For the same compound, the tumor growth ([1]; 10 mg/kg i.p. once per week, 4 doses (FIG. 4)) was “moderately inhibited tumor growth”, the tumor growth ([3]; 0.3 mg/kg i.p. 2 times a week, 6 doses (FIG. 5)) was “moderately inhibited tumor growth” and the “% T/C value” ([3]; 0.3 mg/kg i.p. twice per week (6 doses), day 49, SCID mice) was 26%. The “% T/C value” ([3]; second study, single dose 1 mg/kg, over three days (data not shown)) was 42% and the tumor growth ([4]; 10 mg/kg i.p. once per week) was “moderately inhibited tumor growth”.
